From patent US20240002846A1, “COMPOSITIONS AND METHODS FOR THE DIAGNOSIS AND TREATMENT OF ITCH” (Duke University, priority 2020, published 2024)
“Also recorded” adds a separate entry of the source.

Tests used:
[1] = test system: mice; assay: Effect of inhibitor pretreatment on LPA-, LPC- or miR-146a-induced scratching behavior; type: in vivo, mouse; conditions: for effect on LPC-induced itch, i.p. injection / effect on miR-146a-induced itch, i.p. injection: i.p.: SB366791 2 mg/kg, HC030031 30 mg/kg; for effect on LPC-induced itch, i.t. injection / effect on miR-146a-induced itch, i.t. injection: i.t. 30 μg
Procedure: Behavioral assessment. Mice were shaved at the dorsal neck 1 d before experiments. […] After injections, mice were immediately placed back to the chamber, and the scratching behavior was recorded by a Panasonic video camera for 30 min. Hind limb scratching behavior directed toward the injected area at the nape of neck was observed. One scratch is defined as a lifting of the hind limb toward the injection site and then a replacing of the limb back to the floor, regardless of how many scratching strokes take place between those two movements. Behavioral analysis was conducted by observers blinded to genotype.
Control animals received the same volume of vehicles.
Lumbar puncture was made with a 30G-needle and drugs at 5 μL of volume were delivered. Scratching behavior assay was started approximately 2 weeks after resiniferatoxin treatment.

[2] = test system: DRG sensory neurons; assay: Ca2+ imaging in cultured DRG sensory neurons; type: cell-based, mouse; conditions: inhibitor 10 μM
Procedure: Primary mouse sensory neurons were cultured following previous protocol (Chen et al. Pain 2014, 155, 2662-2672). DRGs from 2-3 weeks old male WT, Trpv1 KO, and Trpa1 KO mice were dissected and digested with 1 mg/mL collagenase (Worthington, CSL1) and 5 mg/mL dispase (Invitrogen, Waltham, MA) for 1 h, then triturated. The resulting cell suspension was filtered through a 70 μm cell strainer (BD Biosciences, Bedford, MA) to remove debris. Neurons were cultured in DH10 medium (1:1 DMEM:Hams-F12, Invitrogen, Waltham, MA) with 10% FBS (Sigma, St. Louis, MO), 100 U/mL penicillin and 100 μg/mL streptomycin (Gibco, Gaithersburg, MD) and 50 ng/mL nerve growth factor (NGF; USBiological) on coverslips coated with poly-D-lysine and laminin (Invitrogen, Waltham, MA), and incubated with 5% CO2 at 37° C. Ca^2+ imaging was performed next day after culture.
In vitro and ex vivo Ca^2+ imaging. Routine procedures were followed for Ca^2+ imaging in cultured DRG sensory neurons, epidermal keratinocytes, and HEK cells (Chen et al. J. Biol. Chem. 2016, 291, 10252-10262; Chen et al. Pain 2014, 155, 2662-2672). […] Ratios of emissions were acquired at 0.5 Hz. ΔR/R0 was determined as the fraction of the increase of a given ratio over baseline ratio divided by baseline ratio. […]

[3] = test system: DRG neurons; assay: Ex vivo Ca2+ imaging of GCaMP3-expressing DRG explants; type: cell-based, mouse
Procedure: A previously established method was followed for ex vivo Ca^2+ imaging of DRG explants (Kim et al. Neuron 2014, 81, 873-887). Intact DRGs (L4 or L5) were isolated from naïve male or female Pirt-GCaMP3 mice (2-3 months old) and equilibrated in artificial cerebrospinal fluid (ACSF) bubbled with 95% O2/5% CO2 at room temperature. After 15 min, explants were placed in a dish with 2 mL of pre-oxygenated ACSF and imaged using a Zeiss 780 upright confocal microscope (Carl Zeiss AG, Oberkochen, Germany) with 20× water immersion objective and Z-stack approach at the 488 nm wavelength. Explants were stimulated by miR-146a or miR-146a scramble. After 15 min recording, capsaicin was then applied to identify whether the miR-146a responding neurons were TRPV1 positive. […] Ca^2+ fluorescence intensity was determined using the ImageJ software (NIH, Bethesda, MD, USA). For each neuron, the pixel intensity (Ft) was assessed for each frame and the pixel intensity recorded from the first 20 frames was taken to determine the average baseline value (F0). Ca^2+ signal amplitudes are presented as ΔF/F0, which is the ratio of fluorescence difference (Ft−F0) to baseline (F0).

[4] = test system: vesicular release from mKC; assay: Vesicular release from cultured mouse keratinocytes (AChE activity); type: cell-based; conditions: vs Scramble+LPC
Procedure: Vesicular release from cultured keratinocytes was quantified by detecting acetylcholinesterase (AChE) activity in the extracellular release fluid. (Gupta et al. Am. J. Physiol. Heart Circ. Physiol. 2007, 292, H3052-3056; Malik et al. Methods Mol. Biol. 2016, 1448, 237-248). CBQCA Protein Quantitation Kit (Molecular Probes, Eugene, OR) was used to assess the total protein amounts of each sample. Quantitation was carried out according to kit instructions (Fluorocet, Systems Biosciences, Palo Alto, CA). Briefly, vesicles were lysed to release esterase enzyme whose activity is measured using a florescence dye, excitation at 544 nm and emission at 590 nm. Fluostar Optima (BMG Labtech, Cary, NC) microplate reader was used to measure esterase activity. 500 ng protein equivalent of input was used per well. To determine the contribution of Rab5a and Rab27a to LPC-induced miR-146a release, cells were pre-treated with the Rab5a (5′-GUAGAAUCAA GUUUCUAAUUCUGAA-3′ SEQ ID NO: 9, 5′-[…]-3′ SEQ ID NO: 10) or Rab27a (5′-AGCUAAAA CUGAGAGCUUCAAACAG-3′ SEQ ID NO: 11, 5′-[…]-3′ SEQ ID NO: 12) siRNA (IDT, Coralville, IA) for 72 h before stimulation. Control cells were treated with scramble siRNA.

[5] = test system: extracellular release of miR-146a; assay: Extracellular release of miRs from cultured mouse keratinocytes (RT-qPCR); type: cell-based; conditions: mKC; for effect of siRNA knockdown on LPC-elicited release of miR-146a: LPC 10 μM, 10 min, siRNA 72 h, vs Scramble+LPC; for decrease of extracellular-released miR-146a: siRNA knockdown, LPC stimulation
Procedure: Primary mouse keratinocytes were cultured following previous protocol (Chen et al. J. Biol. Chem. 2016, 291, 10252-10262). The epidermis from the back skin of newborn WT or keratinocyte-Trpv4 cKO mice was separated from the dermis by floating the skin on 0.25% trypsin (Gibco, Gaithersburg, MD) for 14-18 h at 4° C. Basal keratinocytes were separated from the cornified sheets by filtration through a […] cell strainer. Keratinocytes were plated on collagen I-coated dishes or glass coverslips and grown in EME media (Gibco, Gaithersburg, MD) containing 8% chelex (Bio-rad, Hercules, CA)-treated FBS with the final Ca^2+ adjusted to 0.05 mM, bovine pituitary extract (50 μg/mL), epidermal growth factor (5 ng/mL), and lx antibiotics/antimycotics (Gibco, Gaithersburg, MD) in a humidified incubator with 5% CO2 at 37° C. for 5-7 days until use. To knockdown Trpv4 in isolated keratinocytes from newborn keratinocyte-Trpv4 cKO mice, cells were treated with 4-OH tamoxifen at 500 nM for 72 h.
Measurement of released vesicles and extracellular miR-146a from cultured keratinocytes or sera Medium for the cultured keratinocytes was replaced with serum-free medium 2 h before LPC stimulation. […] Finally, cell-free supernatants were further purified using a Vesicular Isolation kit (Invitrogen, Waltham, MA) according to the manufacturer's instructions, with final product resuspended in ice-cold PBS. Total RNA extraction was then carried out using a Total RNA Isolation kit (Invitrogen, Waltham, MA). Enrichment for small RNAs was carried out by sequential increase in ethanol concentration and passing through glass-fiber filters. RNase free water was used to elute small RNAs in the final elution step. For human PBC sera or sera from ANIT-treated mice, RNA was isolated using Qiagen miRNeasy Plasma/Serum kit. cDNA synthesis from extracted RNAs was performed according to manufacturer's instructions (qSTAR miRNA kit, Origene). For qPCR, the stem-loop oligonucleotides specific for the following miRs are as follows: miR-146a-5p (GAGAACTGAATTCCATGGG, SEQ ID NO: 4), miR-let-7b (GAGGTAGTAGGTTGTGTGG, SEQ ID NO: 5), miR-125b-1 (CCCT GAGACCCTAACTTG, SEQ ID NO: 6), miR-203 (GTGGTTC TTGACAGTTCAAC, SEQ ID NO: 7), and miR-16-5p (AGCAGCAC GTAAATATTGGC, SEQ ID NO: 8). Primers were purchased from Integrated DNA Technologies company (Coralville, IA). qPCR reactions for each sample were run in triplicates, including no-template controls. MiR-16-5p was selected as a control due to the relative constancy of its expression in various cultured cell lines (Schwarzenbach et al. Clin. Chem. 2015, 61, 1333-1342). qPCR for this miR was performed in tandem with target miRs to determine the optimal normalization procedure. To investigate the effects of the specific TRPV4 inhibitors GSK205 or HC067047 and the specific MEK inhibitor U0126 on LPC-induced extracellular release of miR-146a, cells were incubated with the inhibitors for 15 min before stimulation. Control cells received the same volume of vehicle.
Vesicular release from cultured keratinocytes was quantified by detecting acetylcholinesterase (AChE) activity in the extracellular release fluid. (Gupta et al. Am. J. Physiol. Heart Circ. Physiol. 2007, 292, H3052-3056; Malik et al. Methods Mol. Biol. 2016, 1448, 237-248). CBQCA Protein Quantitation Kit (Molecular Probes, Eugene, OR) was used to assess the total protein amounts of each sample. Quantitation was carried out according to kit instructions (Fluorocet, Systems Biosciences, Palo Alto, CA). Briefly, vesicles were lysed to release esterase enzyme whose activity is measured using a florescence dye, excitation at 544 nm and emission at 590 nm. Fluostar Optima (BMG Labtech, Cary, NC) microplate reader was used to measure esterase activity. 500 ng protein equivalent of input was used per well. […]

Compound	effect on LPC-induced itch, i.p. injection [1]	effect on miR-146a-induced itch, i.p. injection [1]	effect on LPC-induced itch, i.t. injection [1]	effect on miR-146a-induced itch, i.t. injection [1]	effect on miR-146a (300 nM) induced Ca2+ influx [2]	effect on percentage of total DRG neurons responding to miR-146a (300 nM) ([3]; inhibitor 10 μM)	Ca2+ signal in sensory neurons following stimulation ([3]; miR-146a 300 nM, capsaicin 1 μM)	effect of siRNA on LPC-elicited vesicular release [4]	effect of siRNA knockdown on LPC-elicited release of miR-146a [5]	decrease of extracellular-released miR-146a [5] [%]
CC(C)c1ccc(NC(=O)Cn2cnc3c2c(=O)n(C)c(=O)n3C)cc1 [HC030031]	not significantly altered	not significantly altered	not significantly altered	not significantly altered	not significantly altered	–	–	–	–	–
COc1cccc(NC(=O)/C=C/c2ccc(Cl)cc2)c1 [SB366791]	significantly reduced; also recorded: significantly attenuated	significantly reduced; also recorded: significantly attenuated	significantly reduced; also recorded: significantly attenuated	significantly reduced; also recorded: significantly attenuated	significantly reduced	significantly reduced	–	–	–	–
COc1cc(CNC(=O)CCCC/C=C/C(C)C)ccc1O [capsaicin]	–	–	–	–	–	–	increased	–	–	–
Rab5a siRNA: siRNA against Rab5a, SEQ ID NO: 9 and 10 (chain 1 GUAGAAUCAAGUUUCUAAUUCUGAA; chain 2 UUCAGAAUUAGAAACUUGAUUCUACCA; listed as RNA, chemistry not given here)	–	–	–	–	–	–	–	completely eliminated; also recorded: significant decrease	significant decrease	~40
Rab27a siRNA: siRNA against Rab27a, SEQ ID NO: 11 and 12 (chain 1 AGCUAAAACUGAGAGCUUCAAACAG; chain 2 CUGUUUGAAGCUCUCAGUUUUAGCUUA; listed as RNA, chemistry not given here)	–	–	–	–	–	–	–	completely eliminated; also recorded: significant decrease	significant decrease	~40
